Data published in publication PMC11571207, “Stereorandomized Oncocins with Preserved Ribosome Binding and Antibacterial Activity” (Journal of Medicinal Chemistry, 2024).
Converted amounts (≈) assume the structure as drawn. Non-standard residues stand in square brackets, D forms with d. Residues, ends and D or L forms follow the SMILES beside them. No end group written: not given here.

Experiments:
[1] = tested on: A. baumannii ATCC19606; experiment: microbe, parasite or virus in culture; details: for MIC A. baumannii, 12.5% MHB / MIC A. baumannii, Full MHB: A. baumannii ATCC19606, 16–20 h at 37 °C; for MIC A. baumannii, 12.5% MHB: 12.5% Müller–Hinton medium; for MIC A. baumannii, Full MHB: full Müller–Hinton medium; for MIC A. baumannii ATCC19606: supplement CSV
Description: (§1) We tested antibacterial effects against the Gram-negative bacteria Escherichia coli, Klebsiella pneumoniae, Pseudomonas aeruginosa, and Acinetobacter baumannii and the Gram-positive methicillin-resistant Staphylococcus aureus (MRSA).
(§2) Bacterial growth assay (Figure S1), transmission electron microscopy (Figure S6), serum stability assay (Figure S7), circular dichroism spectral recording (Figures S8 and S9), antimicrobial and hemolysis activity assays (MIC and MHC), and vesicle leakage assay were carried out as described in earlier publications.[43],[44]
(§3) Minimum inhibitory concentration assay
(§4) Antimicrobial activity was assayed against P. aeruginosa PAO1, K. pneumoniae NCTC418, E. coli W3110, A. baumannii ATCC 19606, methicillin-resistant S. aureus COL (MRSA), and for selected peptides on P. aeruginosa PA14 and the polymyxin-B-resistant derivative PA14 2P4, as well as the clinical isolates ZEM-1A and ZEM9A, K. pneumoniae OXA-48, S. aureus Newman, Enterobacter cloacae and Burkholderia cenocepacia. The minimal inhibitory concentration (MIC) was determined by using broth microdilution method. A colo ny of bacteria was picked and grown in Luria-Bertani (LB) medium overnight at 37°C. For E. coli BW25113 sbmA::kan the medium was supplemented with 25 mg/L of kanamycin. The next day, the culture was then regrown in LB medium to log phase (OD600 = 0.6 to 0.8), which lasted approximately 4 h, and diluted to an OD600 of 0.022 in the desired medium. Stock solutions of 1 mg/mL of the samples were prepared in sterilized milliQ water and diluted to the beginning concentration of 64 μg/mL in 300 μL Mueller Hinton (MH)-medium. The diluted samples were added to first well of 96-well microtiter plate (TPP, untreated, Faust Laborbedarf, AG, Schaffhausen) and diluted serially by ½. Finally, 4 μL of the bacterial suspension was inoculated into the sample solutions (150 μL/well) with a final inoculation of about 5∙10^5 CFU/mL. The plates were then incubated at 37°C for 15-18h. For each assay, sterility (broth only) and growth control (broth with bacterial inoculum, without antibiotics) were checked with two columns in the plate. The next day, 15 μL of 3-(4,5-dimethylthiazol-2-yl)-2,5-diphenyltetrazolium bromide (MTT) was added to each well of the plate, such a way that MIC was defined as the lowest concentration of the peptide that inhibited visible growth of the tested

[2] = tested on: E. coli W3110; experiment: microbe, parasite or virus in culture; details: for MIC E. coli, 12.5% MHB / MIC E. coli, Full MHB: E. coli W3110, 16–20 h at 37 °C, broth microdilution; for MIC E. coli, 12.5% MHB: 12.5% Müller–Hinton medium; for MIC E. coli, Full MHB: full Müller–Hinton medium; for MIC E. coli W3110: supplement CSV
Description: as §1, §2, §3, §4

[3] = tested on: K. pneumoniae NCTC 418; experiment: microbe, parasite or virus in culture; details: for MIC K. pneumoniae, 12.5% MHB / MIC K. pneumoniae, Full MHB: K. pneumoniae NCTC 418, 16–20 h at 37 °C; for MIC K. pneumoniae, 12.5% MHB: 12.5% Müller–Hinton medium; for MIC K. pneumoniae, Full MHB: full Müller–Hinton medium; for MIC K. pneumoniae NCTC418: supplement CSV
Description: as §1, §2, §3, §4

[4] = tested on: P. aeruginosa PAO1; experiment: microbe, parasite or virus in culture; details: for MIC P. aeruginosa, 12.5% MHB / MIC P. aeruginosa, Full MHB: P. aeruginosa PAO1, 16–20 h at 37 °C; for MIC P. aeruginosa, 12.5% MHB: 12.5% Müller–Hinton medium; for MIC P. aeruginosa, Full MHB: full Müller–Hinton medium; for MIC P. aeruginosa PAO1: supplement CSV
Description: as §1, §2, §3, §4

[5] = tested on: S. aureus COL (MRSA); experiment: microbe, parasite or virus in culture; details: for MIC S. aureus, 12.5% MHB / MIC S. aureus, Full MHB: S. aureus COL (MRSA), 16–20 h at 37 °C; for MIC S. aureus, 12.5% MHB: 12.5% Müller–Hinton medium; for MIC S. aureus, Full MHB: full Müller–Hinton medium; for MIC S. aureus COL (MRSA): supplement CSV
Description: as §1, §2, §3, §4

[6] = tested on: human red blood cells; experiment: Hemolysis assay, minimum hemolytic concentration; details: for Haemolysis on hRBC, MHC: 2.5% human red blood cells (final) in 10 mM phosphate, 150 mM NaCl, pH 7.4, 25 °C, 4 h, visual inspection; for MHC human red blood cells: supplement CSV

Compound	MIC A. baumannii, 12.5% MHB [1]	MIC A. baumannii, Full MHB [1]	MIC A. baumannii ATCC19606 ([1]; 12.5% MH pH 7.4)	MIC A. baumannii ATCC19606 ([1]; full MH pH 7.4)	MIC E. coli, 12.5% MHB [2]	MIC E. coli, Full MHB [2]	MIC E. coli W3110 ([2]; 12.5% MH pH 7.4)	MIC E. coli W3110 ([2]; full MH pH 7.4)	MIC K. pneumoniae, 12.5% MHB [3]	MIC K. pneumoniae, Full MHB [3]	MIC K. pneumoniae NCTC418 ([3]; 12.5% MH pH 7.4)	MIC K. pneumoniae NCTC418 ([3]; full MH pH 7.4)	MIC P. aeruginosa, 12.5% MHB [4]	MIC P. aeruginosa, Full MHB [4]	MIC P. aeruginosa PAO1 ([4]; 12.5% MH pH 7.4)	MIC P. aeruginosa PAO1 ([4]; full MH pH 7.4)	MIC S. aureus, 12.5% MHB [5]	MIC S. aureus, Full MHB [5]	MIC S. aureus COL (MRSA) ([5]; 12.5% MH pH 7.4)	MIC S. aureus COL (MRSA) ([5]; full MH pH 7.4)	other results
CC[C@H](C)[C@H](NC(=O)[C@H](CCCNC(=N)N)NC(=O)[C@H](CCCNC(=N)N)NC(=O)[C@@H]1CCCN1C(=O)[C@@H]1CCCN1C(=O)[C@H](CCCNC(=N)N)NC(=O)[C@@H]1CCCN1C(=O)[C@H](CCCNC(=N)N)NC(=O)[C@@H]1CCCN1C(=O)[C@H](CC(C)C)NC(=O)[C@H](Cc1ccc(O)cc1)NC(=O)[C@H]1CCCN1C(=O)[C@@H]1CCCN1C(=O)[C@H](CCCCN)NC(=O)[C@H](CC(=O)O)NC(=O)[C@@H](N)C(C)C)C(=O)N[C@@H](Cc1ccc(O)cc1)C(=O)N[C@@H](CC(N)=O)C(=O)N[C@@H](CCCNC(=N)N)C(N)=O [DP5-Onc] (H-VDKP[dP]YLPRPRPPRRIYNR-NH2)	16 µg/mL (≈ 6.69 µM)	> 64 µg/mL	16 µg/mL (≈ 6.69 µM)	>64 µg/mL	4 µg/mL (≈ 1.67 µM)	32 µg/mL (≈ 13.4 µM)	4 µg/mL (≈ 1.67 µM)	32 µg/mL (≈ 13.4 µM)	> 16 µg/mL	> 64 µg/mL	>16 µg/mL	>64 µg/mL	> 16 µg/mL	> 64 µg/mL	>16 µg/mL	>64 µg/mL	>64 / 64 μg/mL	>64 / 64 μg/mL	64 µg/mL (≈ 26.8 µM)	>64 µg/mL	Haemolysis on hRBC, MHC [6]: >1000 µg/mL; MHC human red blood cells [6]: >1000 µg/mL
VDKPPYLPRPRPPRRIYNR [sr10Cterm-Onc] (VDKPPYLPRPRPPRRIYNR-NH2; also: residues 10-19 stereorandomized (1:1 L/D mixture))	4 µg/mL	64 µg/mL	4 µg/mL	64 µg/mL	4 µg/mL	16 µg/mL	4 µg/mL	16 µg/mL	4 µg/mL	8 µg/mL	4 µg/mL	8 µg/mL	8 µg/mL	64 µg/mL	8 µg/mL	64 µg/mL	32 µg/mL	> 64 µg/mL	32 µg/mL	>64 µg/mL	Haemolysis on hRBC, MHC [6]: >1000 µg/mL; MHC human red blood cells [6]: >1000 µg/mL
CC[C@H](C)[C@H](NC(=O)[C@H](CCCNC(=N)N)NC(=O)[C@H](CCCNC(=N)N)NC(=O)[C@@H]1CCCN1C(=O)[C@@H]1CCCN1C(=O)[C@@H](CCCNC(=N)N)NC(=O)[C@@H]1CCCN1C(=O)[C@H](CCCNC(=N)N)NC(=O)[C@@H]1CCCN1C(=O)[C@H](CC(C)C)NC(=O)[C@H](Cc1ccc(O)cc1)NC(=O)[C@@H]1CCCN1C(=O)[C@@H]1CCCN1C(=O)[C@H](CCCCN)NC(=O)[C@H](CC(=O)O)NC(=O)[C@@H](N)C(C)C)C(=O)N[C@@H](Cc1ccc(O)cc1)C(=O)N[C@@H](CC(N)=O)C(=O)N[C@@H](CCCNC(=N)N)C(N)=O [DR11-Onc] (H-VDKPPYLPRP[dR]PPRRIYNR-NH2)	16 µg/mL (≈ 6.69 µM)	32 µg/mL (≈ 13.4 µM)	16 µg/mL (≈ 6.69 µM)	32 µg/mL (≈ 13.4 µM)	2 µg/mL (≈ 0.837 µM)	16 µg/mL (≈ 6.69 µM)	2 µg/mL (≈ 0.837 µM)	16 µg/mL (≈ 6.69 µM)	2 µg/mL (≈ 0.837 µM)	16 µg/mL (≈ 6.69 µM)	2 µg/mL (≈ 0.837 µM)	16 µg/mL (≈ 6.69 µM)	16 µg/mL (≈ 6.69 µM)	> 64 µg/mL	16 µg/mL (≈ 6.69 µM)	>64 µg/mL	>64 / >64 μg/mL	>64 / >64 μg/mL	>64 µg/mL	>64 µg/mL	Haemolysis on hRBC, MHC [6]: >1000 µg/mL; MHC human red blood cells [6]: >1000 µg/mL
VDKPPYLPRPRPPRRIYNR [sr3Nterm-Onc] (VDKPPYLPRPRPPRRIYNR-NH2; also: residues 1-3 stereorandomized (1:1 L/D mixture))	8 µg/mL	64 µg/mL	8 µg/mL	64 µg/mL	2 µg/mL	16 µg/mL	2 µg/mL	16 µg/mL	2 µg/mL	16 µg/mL	2 µg/mL	16 µg/mL	16 µg/mL	> 64 µg/mL	16 µg/mL	>64 µg/mL	>64 / 64 μg/mL	>64 / 64 μg/mL	64 µg/mL	>64 µg/mL	Haemolysis on hRBC, MHC [6]: >1000 µg/mL; MHC human red blood cells [6]: >1000 µg/mL
CC[C@H](C)[C@H](NC(=O)[C@H](CCCNC(=N)N)NC(=O)[C@H](CCCNC(=N)N)NC(=O)[C@@H]1CCCN1C(=O)[C@@H]1CCCN1C(=O)[C@H](CCCNC(=N)N)NC(=O)[C@@H]1CCCN1C(=O)[C@H](CCCNC(=N)N)NC(=O)[C@@H]1CCCN1C(=O)[C@H](CC(C)C)NC(=O)[C@H](Cc1ccc(O)cc1)NC(=O)[C@@H]1CCCN1C(=O)[C@H]1CCCN1C(=O)[C@H](CCCCN)NC(=O)[C@H](CC(=O)O)NC(=O)[C@@H](N)C(C)C)C(=O)N[C@@H](Cc1ccc(O)cc1)C(=O)N[C@@H](CC(N)=O)C(=O)N[C@@H](CCCNC(=N)N)C(N)=O [DP4-Onc] (H-VDK[dP]PYLPRPRPPRRIYNR-NH2)	8 µg/mL (≈ 3.35 µM)	64 µg/mL (≈ 26.8 µM)	8 µg/mL (≈ 3.35 µM)	64 µg/mL (≈ 26.8 µM)	4 µg/mL (≈ 1.67 µM)	16 µg/mL (≈ 6.69 µM)	4 µg/mL (≈ 1.67 µM)	16 µg/mL (≈ 6.69 µM)	4 µg/mL (≈ 1.67 µM)	32 µg/mL (≈ 13.4 µM)	4 µg/mL (≈ 1.67 µM)	32 µg/mL (≈ 13.4 µM)	> 16 µg/mL	> 64 µg/mL	>16 µg/mL	>64 µg/mL	>64 / 64 μg/mL	>64 / 64 μg/mL	64 µg/mL (≈ 26.8 µM)	>64 µg/mL	Haemolysis on hRBC, MHC [6]: >1000 µg/mL; MHC human red blood cells [6]: >1000 µg/mL
